Measured values published in ChEMBL document CHEMBL1201862, “PubChem BioAssay data set” (2004).
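Dose response: 5 concentrations. Exposure: 48 h. Format: 96-well plates. Endpoint: linear interpolation; highest concentration if not reached. GI50 marks 50% less growth.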 Calls of active or inactive are those of the source. Cut-off read from the data, not from the text of the source: active = GI50 up to about 1.1 µM and inactive = higher.

Legend:
Test in all cases: growth of human tumour cells (NCI), 48 h
KM12 = test system: KM12
IGROV-1 = test system: IGROV-1
LOX IMVI = test system: LOX IMVI
SF-295 = test system: SF-295
NCI-H522 = test system: NCI-H522
UO-31 = test system: UO-31
SK-MEL-5 = test system: SK-MEL-5
OVCAR-4 = test system: OVCAR-4
COLO 205 = test system: COLO 205
NCI-H460 = test system: NCI-H460
T47D = test system: T47D
M14 = test system: M14
SF-268 = test system: SF-268
OVCAR-3 = test system: OVCAR-3
NCI-H23 = test system: NCI-H23
NCI/ADR-RES = test system: NCI/ADR-RES
TK-10 = test system: TK-10
HCT-15 = test system: HCT-15
RXF 393 = test system: RXF 393
HL-60 = test system: HL-60
786-0 = test system: 786-0
DU-145 = test system: DU-145
A549 = test system: A549
MDA-MB-231 = test system: MDA-MB-231
UACC-62 = test system: UACC-62
MOLT-4 = test system: MOLT-4
Hs-578T = test system: Hs-578T
CAKI-1 = test system: CAKI-1
SR = test system: SR
CCRF-CEM = test system: CCRF-CEM
SK-MEL-2 = test system: SK-MEL-2
PC-3 = test system: PC-3
SK-OV-3 = test system: SK-OV-3
SNB-19 = test system: SNB-19
MDA-N = test system: MDA-N
U-251 = test system: U-251
SN12C = test system: SN12C
HT-29 = test system: HT-29
RPMI-8226 = test system: RPMI-8226
OVCAR-5 = test system: OVCAR-5
ACHN = test system: ACHN
MCF7 = test system: MCF7
UACC-257 = test system: UACC-257
SF-539 = test system: SF-539
SK-MEL-28 = test system: SK-MEL-28
HOP-62 = test system: HOP-62
HCT-116 = test system: HCT-116
NCI-H226 = test system: NCI-H226
EKVX = test system: EKVX
SW-620 = test system: SW-620
SNB-75 = test system: SNB-75
MDA-MB-435 = test system: MDA-MB-435
HCC 2998 = test system: HCC 2998
HOP-92 = test system: HOP-92
OVCAR-8 = test system: OVCAR-8
K562 = test system: K562

Cn1[nH]nn/c1=N\N=C\c1ccccc1
GI50 (KM12): > 10 µM (inactive) | GI50 (IGROV-1): > 10 µM (inactive) | GI50 (LOX IMVI): > 10 µM (inactive) | GI50 (SF-295): > 10 µM (inactive) | GI50 (NCI-H522): > 10 µM (inactive) | GI50 (UO-31): > 10 µM (inactive) | GI50 (SK-MEL-5): > 10 µM (inactive) | GI50 (OVCAR-4): > 10 µM (inactive) | GI50 (COLO 205): > 10 µM (inactive) | GI50 (NCI-H460): > 10 µM (inactive) | GI50 (T47D): > 10 µM (inactive) | GI50 (M14): > 10 µM (inactive) | GI50 (SF-268): > 10 µM (inactive) | GI50 (OVCAR-3): > 10 µM (inactive) | GI50 (NCI-H23): > 10 µM (inactive) | GI50 (NCI/ADR-RES): > 10 µM (inactive) | GI50 (TK-10): > 10 µM (inactive) | GI50 (HCT-15): > 10 µM | GI50 (RXF 393): > 10 µM (inactive) | GI50 (HL-60): > 10 µM (inactive) | GI50 (786-0): > 10 µM (inactive) | GI50 (DU-145): > 10 µM (inactive) | GI50 (A549): > 10 µM (inactive) | GI50 (MDA-MB-231): > 10 µM (inactive) | GI50 (UACC-62): > 10 µM (inactive) | GI50 (MOLT-4): > 10 µM (inactive) | GI50 (Hs-578T): > 10 µM (inactive) | GI50 (CAKI-1): > 10 µM (inactive) | GI50 (SR): > 10 µM (inactive) | GI50 (CCRF-CEM): > 10 µM (inactive) | GI50 (SK-MEL-2): > 10 µM (inactive) | GI50 (PC-3): > 10 µM (inactive) | GI50 (SK-OV-3): > 10 µM (inactive) | GI50 (SNB-19): > 10 µM (inactive) | GI50 (MDA-N): > 10 µM (inactive) | GI50 (U-251): > 10 µM (inactive) | GI50 (SN12C): > 10 µM (inactive) | GI50 (HT-29): > 10 µM (inactive) | GI50 (RPMI-8226): > 10 µM (inactive) | GI50 (OVCAR-5): > 10 µM (inactive) | GI50 (ACHN): > 10 µM (inactive) | GI50 (MCF7): > 10 µM (inactive) | GI50 (UACC-257): > 10 µM (inactive) | GI50 (SF-539): > 10 µM (inactive) | GI50 (SK-MEL-28): > 10 µM (inactive) | GI50 (HOP-62): > 10 µM (inactive) | GI50 (HCT-116): > 10 µM (inactive) | GI50 (NCI-H226): > 10 µM (inactive) | GI50 (EKVX): 2.9 µM (inactive) | GI50 (SW-620): > 10 µM (inactive) | GI50 (SNB-75): > 10 µM (inactive) | GI50 (MDA-MB-435): > 10 µM (inactive) | GI50 (HCC 2998): > 10 µM (inactive) | GI50 (HOP-92): > 10 µM (inactive) | GI50 (OVCAR-8): > 10 µM (inactive) | GI50 (K562): > 10 µM (inactive)
